From ChEMBL document CHEMBL1201862, “PubChem BioAssay data set” (2004)
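How tested: cells in 96-well plates exposed to compound for 48 hours at five concentrations. GI50 is the concentration that inhibits growth by half.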 The source made the active and inactive calls. Cut-off read from the data, not from the text of the source: active = GI50 up to about 1.1 µM and inactive = higher.

Legend:
Experiment in all cases: inhibition of tumour cell growth, NCI panel, 48 h
M14 = system: M14
SN12C = system: SN12C
UACC-62 = system: UACC-62
HCT-15 = system: HCT-15
KM12 = system: KM12
MOLT-4 = system: MOLT-4
NCI-H522 = system: NCI-H522
A498 = system: A498
HOP-92 = system: HOP-92
NCI-H23 = system: NCI-H23
SR = system: SR
LOX IMVI = system: LOX IMVI
Malme-3M = system: Malme-3M
K562 = system: K562
A549 = system: A549

| Structure (SMILES) | GI50 (M14) | GI50 (SN12C) | GI50 (UACC-62) | GI50 (HCT-15) [µM] | GI50 (KM12) | GI50 (MOLT-4) | GI50 (NCI-H522) | GI50 (A498) | GI50 (HOP-92) | GI50 (NCI-H23) | GI50 (SR) | GI50 (LOX IMVI) | GI50 (Malme-3M) | GI50 (K562) | GI50 (A549) |
| --- | --- | --- | --- | --- | --- | --- | --- | --- | --- | --- | --- | --- | --- | --- | --- |
| N#C/C(=C\c1ccc2ccccc2c1)c1ccccc1 | 19.5 µM (inactive) | 39.8 µM (inactive) | 13.1 µM (inactive) | 23.6 | 27.7 µM (inactive) | 39.5 µM (inactive) | 12 µM (inactive) | 23.6 µM (inactive) | 65.9 µM (inactive) | > 100 µM (inactive) | 46.8 µM (inactive) | 53.3 µM (inactive) |  |  |  |
| COC(=O)C(C(=O)C(=O)Nc1nc2ccc([N+](=O)[O-])cc2s1)c1nc2ccc(Cl)cc2nc1O (configuration not stated) | > 100 µM (inactive) | > 100 µM (inactive) | > 100 µM (inactive) | > 100 | > 100 µM (inactive) | > 100 µM (inactive) | > 100 µM (inactive) | 21.2 µM (inactive) |  | > 100 µM (inactive) | > 100 µM (inactive) | > 100 µM (inactive) | > 100 µM (inactive) | > 100 µM (inactive) | > 100 µM (inactive) |
| COC(=O)C1=NC(=S)NC(c2ccccc2)C1c1nc2ccccc2o1 (configuration not stated) | > 50 µM (inactive) | > 50 µM (inactive) | > 50 µM (inactive) | > 50 | > 50 µM (inactive) | > 50 µM (inactive) | > 50 µM (inactive) | > 50 µM (inactive) | > 50 µM (inactive) | > 50 µM (inactive) | > 50 µM (inactive) | > 50 µM (inactive) | > 50 µM (inactive) | > 50 µM (inactive) | > 50 µM (inactive) |
| O=C(N/C(=C\c1ccc(Oc2ccc(Cl)c(Cl)c2)cc1)c1nc2ccccc2[nH]1)c1ccccc1 | 19.5 µM (inactive) | 18.4 µM (inactive) | 13.7 µM (inactive) | 23.2 | 15.3 µM (inactive) | 18.7 µM (inactive) | 15.9 µM (inactive) |  | 10.4 µM (inactive) | 13.3 µM (inactive) | 25.6 µM (inactive) |  | 20.9 µM (inactive) | 8.91 µM (inactive) | 17.9 µM (inactive) |
| CN(C(=O)C12C3C4C1C1C2C3C41C(N)=O)C(C)(C)C (configuration not stated) | > 100 µM (inactive) | > 100 µM (inactive) | > 100 µM (inactive) |  | > 100 µM (inactive) | > 100 µM (inactive) | > 100 µM (inactive) | > 100 µM (inactive) | > 100 µM (inactive) | > 100 µM (inactive) | > 100 µM (inactive) |  | > 100 µM (inactive) | > 100 µM (inactive) | > 100 µM (inactive) |
